Reference: patent US20050176672A1, “Use of cationic lipids to generate anti-tumor immunity” (Genzyme Corporation, priority 1999, published 2005)

Experiments:
[1] = test system: cytokine and cellular levels in the BALF; settings: complexes formed between DOTMA and pDNA; Friemark et al. 1998; cited from earlier work
BALB/c mouse lungs = assay: Histopathological analysis of lung after intranasal instillation; type: in vivo, BALB/c mice; settings: component alone; scale from 0 to 4; 2 days post-instillation
Description: The histopathological changes within BALB/c mouse lungs following administration of either cationic lipid alone, pDNA alone, or cationic lipid:pDNA complexes were also examined. BALB/c mice were instilled intranasally with GL-67:(m)pCF1-CAT, GL67:pCF1-CAT, GL-67 alone, (m)pCF1-CAT, pCF1-CAT, or water (vehicle control). Mice were sacrificed 2 days post-instillation and the lungs were processed for histological examination in a blinded manner. Histopathology.
Lungs were fixed by inflation at 30 cm of H2O pressure with 2% paraformaldehyde and 0.2% glutaraldehyde. Representative samples were taken from each lung lobe, embedded in glycol methacrylate, sectioned and stained with hematoxylin and eosin. Histopathology on the lung was evaluated in a blinded fashion and graded subjectively using a scale of 0 to 4, where a score of 0 indicates no abnormal findings and a score of 4 reflects severe changes with intense infiltrates. See Scheule et al., Hum. Gene Ther. 8: 689-707 (1997).
The extent of lung inflammation was graded using a scale from 0 to 4, with 0 indicating no abnormalities, 1 indicating a minimal change, 2 a mild change, 3 a moderate change, and 4 representing severe changes from a normal lung (FIG. 4).

cytokines in BALF = assay: Cytokine levels in mouse BALF after intranasal instillation (ELISA); type: in vivo, BALB/c mice; settings: component instilled alone; BALF 24 h
Description: Cytokine levels in the mouse BALF were quantitated using enzyme-linked immunosorbent assay (ELISA) kits as specified by the manufacturers. IFN-γ, TNF-α, IL1-α, IL-1β, IL-10 and IL-6 ELISA kits were from Genzyme Corporation, while mKC, MIP-2 and GM-CSF ELISA kits were from R&D Systems, and the Leukotriene B4 ELISA kit was from Perseptive Diagnostics.
The cationic lipid:pDNA complexes were formed by mixing equal volumes of GL67:DOPE (1:2) with pDNA as described previously (Lee et al., Hum. Gene Ther. 7: 1701-1717, (1996)) to a final concentration of 0.6:1.2:3.6 mM (GL-67:DOPE:pDNA) or 0.3:0.6:1.8 mM, as indicated in the figure legends. The DNA concentration is expressed in terms of nucleotides, using an average nucleotide molecular weight of 330 daltons. BALB/c mice were instilled intranasally with 100 μl of complex as described. See Scheule et al., Hum. Gene Ther. 8: 689-707 (1997). The animals were euthanized and their lungs were lavaged 24 h post-instillation using phosphate-buffered saline (PBS). The recovered BALF were centrifuged at 1,500 rpm for 4 min, and the resulting supernatants were removed and frozen at −80° C. for subsequent cytokine analysis. […]
To determine whether methylation of pDNA affected the inflammatory response in the lungs, we measured the levels of several different cytokines in the BALF 24 h after instillation. […]

M3 melanoma cells = assay: M3 melanoma model; type: in vivo, mice; settings: lipid alone, equivalent amount; treated days 5, 10, 14, 18
Method: On day 0, mice were inoculated intraperitoneally with M3 melanoma cells. Following the inoculation of M3 tumor cells, the mice were treated on days […], 14, and 18 with either the GL67:pNull complex, which is cationic lipid GL67 complexed to a null vector (a vector without an expressible insert), or were left untreated (control). All untreated control animals died by day 40, while greater than 85% of the animals treated with the GL 67:pNull complex were alive on day 68.
On day 68, the surviving animals were rechallenged subcutaneously with M3 tumor cells. A naive group of animals was also challenged with these same cells in parallel. All the animals in the naive group died by day 105, while approximately 40% of the animals that had been originally treated with the GL 67:pNull complex survived not only the initial intraperitoneal tumor cells but also the secondary subcutaneous challenge.
Following the intraperitoneal inoculation on day 0 of M3 tumor cells, groups of mice were treated on days 5, 10, 14, and 18 with either GL 67:pNull complexes (lipid:pNull), an equivalent amount of GL 67 (lipid alone), an equivalent amount of pNull DNA (pNull vector alone), or were untreated.

Structure (SMILES) | cytokine and cellular levels in the BALF of treated animals [1] | lung inflammation score (BALB/c mouse lungs) | levels of these four cytokine (TNF-α, IFN-γ, IL-6, KC) in BALF (cytokines in BALF) | mice surviving more than 50 days post tumor cell inoculation (M3 melanoma cells)
CCCCCCCC/C=C\CCCCCCCCOCC(C[N+](C)(C)C)OCCCCCCCC/C=C\CCCCCCCC.[Cl-] (stereo not shown) [DOTMA, N-[1-(2-3-dioleyloxy)propyl]-N,N,N-trimethylammonium chloride] | enhanced | – | – | –
CC(C)CCC[C@@H](C)[C@H]1CC[C@H]2[C@@H]3CC=C4C[C@@H](OC(=O)N(CCCN)CCCCNCCCN)CC[C@]4(C)[C@H]3CC[C@]12C [GL-67] | – | scored slightly lower than lungs that received lipid:pDNA complex | low levels | about 35%
